Laboratory results from ChEMBL document CHEMBL4651402, “Screening of ~5500 FDA-approved drugs and clinical candidates for anti-SARS-CoV-2 activity” (2021).

Tested on: SARS-CoV-2
Experiment: microbe, parasite or virus in culture
Details: Severe acute respiratory syndrome coronavirus 2, Vero C1008, 48 h

Row | SMILES | IC50 [µM] | IC50 (read-out: pIC50 (converted)) [µM]
1 | C1CCC2(C1)C1CN(CC3CC3)CC2CN(CC2CC2)C1 | > 20 | > 20
2 | CO[C@H]1C[C@H](O[C@H]2[C@H](C)[C@@H](O[C@@H]3O[C@H](C)C[C@H](N(C)C)[C@H]3OC(C)=O)[C@@H](C)C[C@@]3(CO3)C(=O)[C@H](C)[C@H](OC(C)=O)[C@@H](C)[C@@H](C)OC(=O)[C@@H]2C)O[C@@H](C)[C@@H]1OC(C)=O | > 20 | > 20
3 | ClC1C(Cl)C(Cl)C(Cl)C(Cl)C1Cl (stereo not given) | > 20 | > 20
4 | COC(=O)C1=C(C)NC(C)=C(C(=O)OCCCN2CCC(c3ccccc3)(c3ccccc3)CC2)C1c1cccc([N+](=O)[O-])c1 (stereo not given) | > 20 | > 20
5 | CNS(=O)(=O)CCc1ccc2[nH]cc(C3CCN(C)CC3)c2c1 | > 20 | > 20
6 | NCC(=O)c1ccccc1 | > 20 | > 20
7 | CN(C)CCN(Cc1cccs1)c1ccccn1 | > 20 | > 20
8 | CC12CCC3C(CC=C4CC(OS(=O)(=O)O)CCC43C)C1CCC2=O (stereo not given) | > 20 | > 20
9 | CC(C)C[C@H](NC(=O)OCC1c2ccccc2-c2ccccc21)C(=O)O | > 20 | > 20
10 | CC12CCC(=O)C=C1CCC1C2C(=O)CC2(C)C1CCC2(O)C(=O)CO (stereo not given) | > 20 | > 20
11 | CNc1ccccc1C(=O)O | > 20 | > 20
12 | CC1=C(CC(=O)O)c2cc(F)ccc2/C1=C\c1ccc([S+](C)[O-])cc1 (stereo not given) | > 20 | > 20
13 | COC(=O)C1=COC(C)C2CN3CCc4c([nH]c5ccccc45)C3CC12 (stereo not given) | > 20 | > 20
14 | CCN1CC2CN(C)CC(C1)C2OC(=O)c1ccc(Cl)cc1 (stereo not given) | > 20 | > 20
15 | COc1ccc2cc([C@@H](C)C(=O)O)ccc2c1 | > 20 | > 20
16 | Nc1ncnc2c1ncn2C1OC(COP(=O)(O)O)C(O)C1O (stereo not given) | > 20 | > 20
17 | CC12CCC(C[N+](C)(CCC[N+](C)(C)C)C1)C2(C)C (stereo not given) | > 20 | > 20
18 | COc1ccc2oc3ccccc3c(=O)c2c1 | > 20 | > 20
19 | OC1CCCCC1N1CCC(c2ccccc2)CC1 (stereo not given) | > 20 | > 20
20 | CCN(CC)CCOC(c1ccccc1)c1ccccc1 | > 20 | > 20
21 | CCC[C@@]1(CCc2ccccc2)CC(O)=C([C@H](CC)c2cccc(NS(=O)(=O)c3ccc(C(F)(F)F)cn3)c2)C(=O)O1 | > 20 | > 20
22 | O=C(Nc1ccccc1F)N[C@@H]1N=C(c2ccccc2)c2ccccc2NC1=O | > 20 | > 20
23 | CN1CCc2cc3c(c4c2[C@@H]1Cc1ccccc1-4)OCO3 | > 20 | > 20
24 | O=C(O)COc1ccc(C(=O)c2cccs2)c(Cl)c1Cl | > 20 | > 20
25 | NCCCCCCN | > 20 | > 20
26 | CC(=O)S[C@@H]1CC2=CC(=O)CCC2(C)C2CCC3(C)C(CC[C@@]34CCC(=O)O4)C21 (stereo not given in full) | > 20 | > 20
27 | COc1ccc2c3c1O[C@H]1[C@@H](OC(C)=O)C=C[C@H]4[C@@H](C2)N(C)CC[C@@]341 | > 20 | > 20

Row | SMILES | IC50 [µM] | IC50 (read-out: pIC50 (converted)) [µM]
28 | N#Cc1cc2c(OCC(O)CN3CCN(C(c4ccccc4)c4ccccc4)CC3)cccc2[nH]1 (stereo not given) | > 20 | > 20
29 | COc1ccc(/C=C/C(=O)O)cc1OC | > 20 | > 20
30 | CCC(=O)OCC(=O)[C@@]1(OC(=O)CC)C(C)CC2C3CCC4=CC(=O)C=CC4(C)[C@@]3(Cl)C(O)CC21C (stereo not given in full) | > 20 | > 20
31 | NS(=O)(=O)c1ccc(N2CCCCS2(=O)=O)cc1 | > 20 | > 20
32 | O=C1Nc2ccc(Cl)cc2C(/C=C/C2CC2)(C(F)(F)F)N1 (stereo not given) | > 20 | > 20
33 | NC(=O)CN1CCCC1=O | > 20 | > 20
34 | CC1(C)C2=CCC3C(CCC4(C)C3CC[C@]4(C)O)C2(C)Cc2cnoc21 (stereo not given in full) | > 20 | > 20
35 | CC(=O)OC[C@H]1O[C@@H](S)[C@H](OC(C)=O)[C@@H](OC(C)=O)[C@@H]1OC(C)=O | > 20 | > 20
36 | CNc1ncnc2c1ncn2[C@@H]1O[C@H](CO)[C@@H](O)[C@H]1O | > 20 | > 20
37 | O=C(NC(CO)C(O)c1ccc([N+](=O)[O-])cc1)C(Cl)Cl (stereo not given) | > 20 | > 20
38 | COc1ccc(/C=C/C(=O)Nc2ccccc2C(=O)O)cc1OC | > 20 | > 20
39 | CCn1cnc(C(=O)NC)c1C(=O)NC | > 20 | > 20
40 | CC(=O)OCC(=O)[C@@]1(O)CCC2C3CCC4=CC(=O)CCC4(C)C3C(O)CC21C (stereo not given in full) | > 20 | > 20
41 | O=C(/C=C/c1c(C(=O)O)[nH]c2cc(Cl)cc(Cl)c12)Nc1ccccc1 | > 20 | > 20
42 | CC1=CCC2C3Cc4ccc(O)c5c4C2(CCN3C)C1O5 (stereo not given) | > 20 | > 20
43 | CCCN1CCCC2Cc3nc(N)ncc3CC21 (stereo not given) | > 20 | > 20
44 | C=C[C@]1(C)C[C@@H](OC(=O)CSCCN(CC)CC)[C@]2(C)C(C)CC[C@]3(CCC(=O)[C@@H]32)[C@@H](C)[C@@H]1O (stereo not given in full) | > 20 | > 20
45 | CC[C@]12C=CCN3CCC4(c5ccc(OC)cc5N(C)[C@H]4[C@](O)(C(=O)OC)[C@@H]1OC(C)=O)C32 (stereo not given in full) | > 20 | > 20
46 | CC12CCC(=O)C=C1CCC1C2CCC2(C)C1CC[C@H]2O (stereo not given in full) | > 20 | > 20
47 | C[C@@H](CC(C(N)=O)(c1ccccc1)c1ccccc1)N(C)C | > 20 | > 20
48 | CC1CC(OC(=O)C2CCC(=O)N2)CC(C)(C)C1 (stereo not given) | > 20 | > 20
49 | O[C@H]1[C@H](O)[C@@H](O)O[C@H]2COC(c3ccccc3)O[C@H]12 (stereo not given in full) | > 20 | > 20
50 | CCN1C[C@@]2(COC)C3[C@@H](OC)[C@H]4[C@H]1C3([C@@H]1C[C@@]3(O)[C@H](OC(=O)c5ccccc5)[C@@H]1[C@]4(OC(C)=O)[C@@H](O)[C@@H]3OC)[C@H](OC)C[C@H]2O | > 20 | > 20
51 | CC/C(=C(\c1ccc(OCCN(C)C)cc1)c1cccc(O)c1)c1ccccc1 | > 20 | > 20
52 | CC(=O)C12OC(C)(C)OC1CC1C3CCC4=CC(=O)CCC4(C)C3CCC12C (stereo not given) | > 20 | > 20
53 | CCC[C@H](N[C@@H](C)C(=O)N1C2CCCCC2C[C@H]1C(=O)O)C(=O)OCC (stereo not given in full) | > 20 | > 20
54 | CN1CC(CN(CCN=[N+]=[N-])S(C)(=O)=O)=CC2c3cccc4[nH]cc(c34)CC21 (stereo not given) | > 20 | > 20

Row | SMILES | IC50 [µM] | IC50 (read-out: pIC50 (converted)) [µM]
55 | CCN(CC)CC/C(=N\OC(=O)Nc1ccc(OC)cc1)c1ccccc1 | > 20 | > 20
56 | COC1CCC2(C)C(=CCC3C2CCC2(C)C(C(C)=O)CCC32)C1 (stereo not given) | > 20 | > 20
57 | O=C1CCCN1CC1CCN(c2ccnc(C(F)(F)F)n2)CC1 | > 20 | > 20
58 | CN(C)CCOc1ccc2c(=O)c3ccc(OCCN(C)C)cc3oc2c1 | > 20 | > 20
59 | NC(=O)OC[C@@H](N)Cc1ccccc1 | > 20 | > 20
60 | CC(C)(C)NC(=O)[C@H]1CC[C@H]2[C@H]3CC[C@H]4NC(=O)C=C[C@]4(C)[C@H]3CC[C@]12C | > 20 | > 20
61 | O[C@@H]1[C@@H](O)[C@@H](O)CN2CC[C@@H](O)[C@H]12 | > 20 | > 20
62 | CC(=O)Oc1ccc2c(c1)CCC1C2CCC2(C)C(O)CCC12 (stereo not given) | > 20 | > 20
63 | CCCCC(C)(O)C/C=C/C1C(O)CC(=O)C1CC/C=C/CCC(=O)OC (stereo not given) | > 20 | > 20
64 | O=C1CCN2C(=C1C(=O)NC1CCN(CCCn3c(=O)[nH]c4ccccc43)CC1)Nc1ccccc12 | > 20 | > 20
65 | NC(C(=O)NC1C(=O)N2C(C(=O)O)=C(CSc3c[nH]nn3)CSC12)c1ccc(O)cc1 (stereo not given) | > 20 | > 20
66 | NS(=O)(=O)c1cc(C(=O)NN2CC3C4CCC(C4)C3C2)ccc1Cl (stereo not given) | > 20 | > 20
67 | O=C(O)c1ccc(NC(=O)C(Cc2ccc(O)cc2)NC(=O)c2ccccc2)cc1 (stereo not given) | > 20 | > 20
68 | CN1CCN2c3ccccc3Cn3cccc3[C@@H]2C1 | > 20 | > 20
69 | C[C@H]1CCC[C@H](C)N1CCCCNC(=O)C(Oc1ccccc1)c1ccccc1 (stereo not given in full) | > 20 | > 20
70 | CCN1C[C@]2(OC(=O)c3ccccc3NC(C)=O)CC[C@H](OC)[C@@]34[C@@H]2C[C@@H]([C@@H]13)[C@@]1(O)C[C@H](OC)[C@H]2C[C@@H]4[C@]1(O)[C@H]2OC | > 20 | > 20
71 | COC(=O)OC[C@H]1O[C@@H](Oc2cc(C)cc(O)c2C(=O)CCc2ccc3occc3c2)[C@H](O)[C@@H](O)[C@@H]1O | > 20 | > 20
72 | c1ccc(C(CCN2CCCCC2)c2ccccc2)cc1 | > 20 | > 20
73 | COC1=C[C@@H]2C3=C([C@@H]2C1=O)[C@@H](NC(C)=O)CCc1cc(OC)c(OC)c(OC)c13 | > 20 | > 20
74 | CC12C=CC(=O)C=C1CCC1C2CCC2(C)C(O)CCC12 (stereo not given) | > 20 | > 20
75 | C[N+]12CCC(CC1)C(OC(=O)C(O)(c1ccccc1)c1ccccc1)C2 (stereo not given) | > 20 | > 20
76 | CC(=O)OCC(=O)[C@@]1(O)[C@H](C)CC2C3CCC4=CC(=O)C=CC4(C)[C@@]3(F)C(O)CC21C (stereo not given in full) | > 20 | > 20
77 | CC(=O)OCC(=O)[C@@]1(O)CCC2C3C[C@H](C)C4=CC(=O)C=CC4(C)C3C(O)CC21C (stereo not given in full) | > 20 | > 20
78 | CC12C=CC(=O)C=C1CCC1C2CCC2(C)C(=O)CCC12 (stereo not given) | > 20 | > 20
79 | N[C@@]1(C(=O)O)CC[C@H]2[C@H](C(=O)O)[C@H]21 | > 20 | > 20
80 | NC1CCN(c2cccc(Cl)n2)CC1 | > 20 | > 20
